Assay [1] has as its target T1, Progesterone receptor (Homo sapiens, UniProt P06401).
T1 sequence (P06401 whole entry): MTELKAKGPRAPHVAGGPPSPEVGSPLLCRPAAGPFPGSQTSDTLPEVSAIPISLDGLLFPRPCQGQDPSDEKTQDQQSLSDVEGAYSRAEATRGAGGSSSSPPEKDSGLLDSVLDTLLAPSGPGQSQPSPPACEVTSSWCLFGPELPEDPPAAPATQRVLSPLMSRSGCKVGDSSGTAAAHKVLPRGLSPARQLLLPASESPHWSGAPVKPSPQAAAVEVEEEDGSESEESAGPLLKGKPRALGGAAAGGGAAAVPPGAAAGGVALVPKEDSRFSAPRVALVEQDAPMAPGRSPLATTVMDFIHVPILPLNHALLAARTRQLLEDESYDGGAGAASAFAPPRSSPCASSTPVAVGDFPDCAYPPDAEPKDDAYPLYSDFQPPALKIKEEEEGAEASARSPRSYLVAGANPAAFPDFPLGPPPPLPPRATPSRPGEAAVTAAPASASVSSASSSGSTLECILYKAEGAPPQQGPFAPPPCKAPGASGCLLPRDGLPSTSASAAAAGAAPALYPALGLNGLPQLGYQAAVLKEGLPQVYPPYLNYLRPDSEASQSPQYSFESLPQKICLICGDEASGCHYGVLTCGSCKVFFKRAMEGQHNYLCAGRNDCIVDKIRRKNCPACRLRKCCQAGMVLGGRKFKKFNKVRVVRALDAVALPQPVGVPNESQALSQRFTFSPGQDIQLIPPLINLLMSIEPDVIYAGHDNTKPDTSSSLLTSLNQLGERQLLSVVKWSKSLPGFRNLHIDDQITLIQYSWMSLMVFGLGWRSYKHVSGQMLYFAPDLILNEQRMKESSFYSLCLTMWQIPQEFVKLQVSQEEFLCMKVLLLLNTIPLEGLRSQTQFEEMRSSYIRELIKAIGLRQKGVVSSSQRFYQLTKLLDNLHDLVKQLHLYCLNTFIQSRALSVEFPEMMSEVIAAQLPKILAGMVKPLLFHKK
Type of assay: functional.

For assay [2], the target named is T2, Alpha-2A adrenergic receptor (Homo sapiens, UniProt P08913).
T2 sequence (P08913 whole entry): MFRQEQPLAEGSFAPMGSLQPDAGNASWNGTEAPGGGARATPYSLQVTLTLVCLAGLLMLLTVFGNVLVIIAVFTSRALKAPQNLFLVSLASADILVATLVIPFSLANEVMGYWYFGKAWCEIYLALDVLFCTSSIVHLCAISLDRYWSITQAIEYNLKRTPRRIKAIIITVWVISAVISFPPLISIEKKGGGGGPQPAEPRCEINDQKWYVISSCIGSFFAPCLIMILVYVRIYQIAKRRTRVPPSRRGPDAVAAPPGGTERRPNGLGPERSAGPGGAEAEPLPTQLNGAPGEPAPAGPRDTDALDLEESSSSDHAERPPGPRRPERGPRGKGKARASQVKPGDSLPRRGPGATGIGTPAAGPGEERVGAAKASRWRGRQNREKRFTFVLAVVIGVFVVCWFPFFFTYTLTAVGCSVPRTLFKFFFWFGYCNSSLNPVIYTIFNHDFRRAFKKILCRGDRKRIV
It is filed as functional, cell-based.

Assay [3] concerns the target Delta-type opioid receptor (Homo sapiens, UniProt P41143).
Assay [4] concerns the target Gamma-aminobutyric acid receptor subunit alpha-1 (Rattus norvegicus, UniProt P62813). Type of assay: functional.
The target of assay [5] is Melanocortin receptor 4 (Homo sapiens, UniProt P32245).
In assay [6] the target is D(1A) dopamine receptor (Homo sapiens, UniProt P21728). Type of assay: functional, cell-based.
For assay [7], the target named is T3, 5-hydroxytryptamine receptor 1A (Homo sapiens, UniProt P08908).
T3 sequence (P08908 whole entry): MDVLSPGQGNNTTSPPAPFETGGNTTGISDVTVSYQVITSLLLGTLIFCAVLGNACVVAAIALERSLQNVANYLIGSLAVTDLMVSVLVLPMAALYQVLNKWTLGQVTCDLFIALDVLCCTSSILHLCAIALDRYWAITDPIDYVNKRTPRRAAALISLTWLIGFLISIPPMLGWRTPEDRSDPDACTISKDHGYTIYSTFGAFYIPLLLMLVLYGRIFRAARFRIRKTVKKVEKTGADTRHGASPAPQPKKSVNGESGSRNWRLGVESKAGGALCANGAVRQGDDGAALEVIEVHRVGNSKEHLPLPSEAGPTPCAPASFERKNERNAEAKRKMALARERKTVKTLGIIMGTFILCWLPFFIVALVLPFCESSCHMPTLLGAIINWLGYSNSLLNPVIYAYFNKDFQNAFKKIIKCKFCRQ
Type of assay: functional, cell-based.

Assay [8] has as its target 3',5'-cyclic-AMP phosphodiesterase 4D (Homo sapiens, UniProt Q08499). It is filed as functional.
The target of assay [9] is Voltage-dependent L-type calcium channel subunit alpha-1C (Rattus norvegicus, UniProt P22002). Type of assay: functional.
Assay [10] deals with Beta-2 adrenergic receptor (Homo sapiens, UniProt P07550).
Assay [11] concerns the target T4, Muscarinic acetylcholine receptor M2 (Homo sapiens, UniProt P08172).
T4 sequence (P08172 whole entry): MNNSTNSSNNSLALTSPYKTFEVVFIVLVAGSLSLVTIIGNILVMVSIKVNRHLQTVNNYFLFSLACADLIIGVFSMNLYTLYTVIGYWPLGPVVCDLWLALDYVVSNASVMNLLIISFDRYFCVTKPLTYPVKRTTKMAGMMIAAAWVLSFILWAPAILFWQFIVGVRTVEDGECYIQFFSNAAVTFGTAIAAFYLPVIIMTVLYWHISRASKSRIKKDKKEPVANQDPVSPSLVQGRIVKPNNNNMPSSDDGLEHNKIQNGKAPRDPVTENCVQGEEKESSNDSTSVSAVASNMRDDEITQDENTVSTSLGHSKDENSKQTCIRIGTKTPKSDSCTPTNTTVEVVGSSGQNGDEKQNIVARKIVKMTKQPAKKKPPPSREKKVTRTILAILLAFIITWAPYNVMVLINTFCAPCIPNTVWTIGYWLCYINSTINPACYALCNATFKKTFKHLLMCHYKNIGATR
It is filed as functional, cell-based.
Further: assay procedure not described here.

Sequence of Voltage-dependent L-type calcium channel subunit alpha-1C (P22002 whole entry): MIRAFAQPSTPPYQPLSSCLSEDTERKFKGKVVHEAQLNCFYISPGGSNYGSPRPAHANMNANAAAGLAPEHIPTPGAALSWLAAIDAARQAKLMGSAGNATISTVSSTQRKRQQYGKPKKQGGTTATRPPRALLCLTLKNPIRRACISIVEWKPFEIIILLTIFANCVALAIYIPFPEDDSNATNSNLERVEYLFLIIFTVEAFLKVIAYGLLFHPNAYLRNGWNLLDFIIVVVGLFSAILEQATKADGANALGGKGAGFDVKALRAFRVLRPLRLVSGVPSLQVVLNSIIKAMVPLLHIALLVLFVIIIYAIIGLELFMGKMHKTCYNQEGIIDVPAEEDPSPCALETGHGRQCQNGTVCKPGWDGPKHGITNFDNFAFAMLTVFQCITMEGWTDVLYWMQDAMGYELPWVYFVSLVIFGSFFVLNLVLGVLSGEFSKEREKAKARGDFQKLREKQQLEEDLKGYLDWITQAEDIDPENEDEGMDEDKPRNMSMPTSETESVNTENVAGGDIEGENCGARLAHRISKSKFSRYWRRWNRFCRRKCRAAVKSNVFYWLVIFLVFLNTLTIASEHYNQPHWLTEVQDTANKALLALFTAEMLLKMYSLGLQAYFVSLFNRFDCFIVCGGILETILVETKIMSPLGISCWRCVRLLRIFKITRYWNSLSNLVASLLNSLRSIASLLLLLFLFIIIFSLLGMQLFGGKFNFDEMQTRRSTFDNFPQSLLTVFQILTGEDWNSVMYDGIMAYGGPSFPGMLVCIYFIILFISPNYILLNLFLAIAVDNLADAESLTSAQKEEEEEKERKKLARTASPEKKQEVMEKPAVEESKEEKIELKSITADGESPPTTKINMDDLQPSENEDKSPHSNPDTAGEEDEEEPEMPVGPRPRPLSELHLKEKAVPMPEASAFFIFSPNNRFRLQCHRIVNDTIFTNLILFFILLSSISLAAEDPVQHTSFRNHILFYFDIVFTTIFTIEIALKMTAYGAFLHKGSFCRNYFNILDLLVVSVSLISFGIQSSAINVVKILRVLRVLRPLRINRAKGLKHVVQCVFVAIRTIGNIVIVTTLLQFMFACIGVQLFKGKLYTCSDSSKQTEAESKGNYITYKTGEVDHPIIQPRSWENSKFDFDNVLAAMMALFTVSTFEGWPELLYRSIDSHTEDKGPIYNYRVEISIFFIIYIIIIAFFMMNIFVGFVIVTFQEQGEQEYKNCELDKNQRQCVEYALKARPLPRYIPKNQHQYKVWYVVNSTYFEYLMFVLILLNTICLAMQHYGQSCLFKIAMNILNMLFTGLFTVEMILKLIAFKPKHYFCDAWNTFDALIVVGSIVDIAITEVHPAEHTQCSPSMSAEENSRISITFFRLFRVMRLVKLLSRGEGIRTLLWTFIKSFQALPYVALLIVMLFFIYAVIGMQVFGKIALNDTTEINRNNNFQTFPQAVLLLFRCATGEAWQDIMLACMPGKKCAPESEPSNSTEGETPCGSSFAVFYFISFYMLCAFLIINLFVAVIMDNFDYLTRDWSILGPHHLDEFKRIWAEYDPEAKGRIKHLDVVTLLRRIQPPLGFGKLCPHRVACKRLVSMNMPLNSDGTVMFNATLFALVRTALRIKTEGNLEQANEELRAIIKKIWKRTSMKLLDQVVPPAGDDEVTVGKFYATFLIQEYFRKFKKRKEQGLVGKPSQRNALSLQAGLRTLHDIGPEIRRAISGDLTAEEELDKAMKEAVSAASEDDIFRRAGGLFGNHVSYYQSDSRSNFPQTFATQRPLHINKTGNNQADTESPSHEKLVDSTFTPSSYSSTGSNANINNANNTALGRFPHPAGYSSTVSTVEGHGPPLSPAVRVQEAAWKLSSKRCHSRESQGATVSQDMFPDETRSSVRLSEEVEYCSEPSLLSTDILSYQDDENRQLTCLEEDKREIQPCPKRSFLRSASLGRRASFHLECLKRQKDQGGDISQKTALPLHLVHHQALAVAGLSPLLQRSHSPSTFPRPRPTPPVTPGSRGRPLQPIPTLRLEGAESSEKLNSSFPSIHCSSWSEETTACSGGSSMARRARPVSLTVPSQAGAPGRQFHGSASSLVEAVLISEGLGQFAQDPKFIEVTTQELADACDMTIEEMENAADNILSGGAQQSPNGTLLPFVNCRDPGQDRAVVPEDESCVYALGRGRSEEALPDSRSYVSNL
Sequence of Gamma-aminobutyric acid receptor subunit alpha-1 (P62813 whole entry): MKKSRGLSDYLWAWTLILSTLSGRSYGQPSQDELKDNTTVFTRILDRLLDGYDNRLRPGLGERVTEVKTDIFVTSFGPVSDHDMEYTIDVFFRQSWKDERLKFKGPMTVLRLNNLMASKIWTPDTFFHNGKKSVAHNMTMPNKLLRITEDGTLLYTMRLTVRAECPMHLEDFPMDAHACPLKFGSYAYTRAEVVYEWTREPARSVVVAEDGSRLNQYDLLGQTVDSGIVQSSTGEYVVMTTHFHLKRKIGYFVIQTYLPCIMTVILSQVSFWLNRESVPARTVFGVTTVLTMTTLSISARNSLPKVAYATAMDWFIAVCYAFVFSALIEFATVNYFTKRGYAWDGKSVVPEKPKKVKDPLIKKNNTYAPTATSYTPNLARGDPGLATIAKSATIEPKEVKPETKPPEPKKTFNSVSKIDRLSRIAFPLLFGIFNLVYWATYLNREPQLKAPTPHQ
Sequence of 3',5'-cyclic-AMP phosphodiesterase 4D (Q08499 whole entry): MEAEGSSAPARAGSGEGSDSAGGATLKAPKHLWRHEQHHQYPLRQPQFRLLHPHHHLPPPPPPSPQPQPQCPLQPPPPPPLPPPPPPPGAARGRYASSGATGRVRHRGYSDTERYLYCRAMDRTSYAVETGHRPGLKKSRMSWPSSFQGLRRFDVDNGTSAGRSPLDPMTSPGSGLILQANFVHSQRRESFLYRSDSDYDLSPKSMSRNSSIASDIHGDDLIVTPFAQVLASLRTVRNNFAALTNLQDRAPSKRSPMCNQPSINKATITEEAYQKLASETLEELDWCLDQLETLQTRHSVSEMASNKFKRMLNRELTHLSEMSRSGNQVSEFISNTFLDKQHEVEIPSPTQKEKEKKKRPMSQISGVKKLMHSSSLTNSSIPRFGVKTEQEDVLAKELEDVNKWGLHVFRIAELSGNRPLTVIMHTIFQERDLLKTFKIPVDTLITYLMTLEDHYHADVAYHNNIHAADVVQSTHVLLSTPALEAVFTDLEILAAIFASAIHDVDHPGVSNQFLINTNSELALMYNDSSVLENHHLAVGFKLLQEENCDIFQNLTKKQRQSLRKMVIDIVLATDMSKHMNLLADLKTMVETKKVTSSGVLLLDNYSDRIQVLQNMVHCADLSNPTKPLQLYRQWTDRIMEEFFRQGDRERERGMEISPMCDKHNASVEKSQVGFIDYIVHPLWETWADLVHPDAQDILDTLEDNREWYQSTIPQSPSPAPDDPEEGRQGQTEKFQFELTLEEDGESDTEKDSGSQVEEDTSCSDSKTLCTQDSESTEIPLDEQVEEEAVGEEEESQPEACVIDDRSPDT
Sequence of Delta-type opioid receptor (P41143 whole entry): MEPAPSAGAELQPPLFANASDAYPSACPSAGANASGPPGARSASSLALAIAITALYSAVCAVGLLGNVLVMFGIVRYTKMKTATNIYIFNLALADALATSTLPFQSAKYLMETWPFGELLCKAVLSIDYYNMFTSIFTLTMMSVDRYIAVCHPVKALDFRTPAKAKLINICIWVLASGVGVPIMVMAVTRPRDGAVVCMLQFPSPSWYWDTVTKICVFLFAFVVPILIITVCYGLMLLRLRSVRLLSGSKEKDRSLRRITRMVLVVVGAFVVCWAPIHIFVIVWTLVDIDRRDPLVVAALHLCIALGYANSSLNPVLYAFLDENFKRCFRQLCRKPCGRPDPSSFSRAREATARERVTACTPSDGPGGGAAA
Sequence of D(1A) dopamine receptor (P21728 whole entry): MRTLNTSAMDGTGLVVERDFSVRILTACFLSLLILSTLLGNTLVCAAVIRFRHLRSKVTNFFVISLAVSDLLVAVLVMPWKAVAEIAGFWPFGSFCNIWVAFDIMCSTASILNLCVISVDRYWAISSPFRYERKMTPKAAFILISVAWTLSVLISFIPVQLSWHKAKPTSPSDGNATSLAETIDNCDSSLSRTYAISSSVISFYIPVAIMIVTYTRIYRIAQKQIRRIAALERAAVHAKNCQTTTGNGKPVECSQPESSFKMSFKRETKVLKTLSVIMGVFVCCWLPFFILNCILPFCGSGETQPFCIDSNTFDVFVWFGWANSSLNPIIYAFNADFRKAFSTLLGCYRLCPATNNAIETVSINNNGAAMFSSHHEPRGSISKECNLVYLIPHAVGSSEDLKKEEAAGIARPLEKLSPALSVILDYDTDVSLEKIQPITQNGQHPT
Sequence of Melanocortin receptor 4 (P32245 whole entry): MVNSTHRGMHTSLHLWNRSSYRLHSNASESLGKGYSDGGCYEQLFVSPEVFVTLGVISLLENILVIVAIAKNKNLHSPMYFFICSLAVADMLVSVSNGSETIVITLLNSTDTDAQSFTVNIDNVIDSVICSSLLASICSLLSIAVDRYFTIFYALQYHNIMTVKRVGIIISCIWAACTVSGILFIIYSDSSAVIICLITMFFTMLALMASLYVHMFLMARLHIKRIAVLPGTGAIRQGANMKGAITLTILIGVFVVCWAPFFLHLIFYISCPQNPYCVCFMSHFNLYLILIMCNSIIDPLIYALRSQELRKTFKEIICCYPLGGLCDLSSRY
Sequence of Beta-2 adrenergic receptor (P07550 whole entry): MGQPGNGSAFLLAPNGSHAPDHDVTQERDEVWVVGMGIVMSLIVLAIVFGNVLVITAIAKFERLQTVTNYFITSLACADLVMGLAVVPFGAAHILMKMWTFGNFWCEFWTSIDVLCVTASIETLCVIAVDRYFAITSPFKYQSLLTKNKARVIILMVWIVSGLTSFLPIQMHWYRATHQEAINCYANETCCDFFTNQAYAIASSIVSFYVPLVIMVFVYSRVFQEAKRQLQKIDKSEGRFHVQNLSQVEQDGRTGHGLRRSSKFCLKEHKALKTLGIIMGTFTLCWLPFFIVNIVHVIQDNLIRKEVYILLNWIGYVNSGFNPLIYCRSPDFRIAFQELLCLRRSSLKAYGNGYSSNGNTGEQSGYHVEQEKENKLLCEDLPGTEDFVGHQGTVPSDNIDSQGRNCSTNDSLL

The AC50 is the concentration giving half of the maximal activity seen. As for `C[N+]1(C)CCC(=C(c2ccccc2)c2ccccc2)CC1`, the AC50 is above 10 µM in [1]; above 10 µM in assay [2]; above 30 µM in assay [3]; above 10 µM in assay [4]; above 30 µM in assay [5]; above 10 µM in [6]. Moreover, the AC50 in assay [7] was above 10 µM; in assay [8] it was above 30 µM; in assay [9], above 10 µM; in [10], above 10 µM.
For the compound `CN(C)Cc1nnc2n1-c1ccc(Cl)cc1C(c1ccccc1)=NC2` [ADINAZOLAM], the AC50 in assay [1] was above 10 µM; in assay [2] it was above 10 µM; in [3], above 30 µM; in assay [4] it was 0.19 µM; in assay [5] it was above 10 µM; in assay [6] it was above 10 µM. Further, the AC50 was above 10 µM in assay [7]; above 10 µM in [11]; above 30 µM in assay [8]; above 10 µM in [9]; above 10 µM in assay [10].
As for `Cc1ccccc1-n1c(CF)nc2ccc(N)cc2c1=O` [AFLOQUALONE], the AC50 in [1] is above 30 µM; in assay [2], above 10 µM; in [3], above 30 µM; in assay [4], above 10 µM; in [5], above 30 µM; in assay [6] it was above 30 µM. The AC50 is above 10 µM in [7]; above 10 µM in [11]; 13 µM in [8]; above 10 µM in [9]; above 30 µM in assay [10].
On to `CCOC(=O)c1ccc(N)cc1` [BENZOCAINE], for which the AC50 was above 10 µM in assay [1]; above 10 µM in assay [2]; above 30 µM in assay [3]; above 10 µM in assay [4]; above 10 µM in assay [5]; above 10 µM in assay [6]. Moreover, the AC50 in assay [7] was above 10 µM; in [11], above 10 µM; in assay [8], above 30 µM; in assay [9], above 10 µM; in [10], above 10 µM.
`CC(C)(Oc1ccc(CCNC(=O)c2ccc(Cl)cc2)cc1)C(=O)O` [BEZAFIBRATE]: the AC50 in assay [1] is above 10 µM; in [2], above 10 µM; in assay [3], above 30 µM; in assay [4], above 10 µM; in assay [5] it was above 10 µM; in [6], above 10 µM. Moreover, the AC50 in [7] was above 30 µM; in [11], above 10 µM; in assay [8], above 30 µM; in assay [9], above 10 µM; in assay [10] it was above 10 µM.
Turning to `C/C=C(/C(=C/C)c1ccc(O)cc1)c1ccc(O)cc1` [DIENESTROL], the AC50 is above 30 µM in assay [1]; above 10 µM in assay [2]; 21 µM in [3]; above 10 µM in [4]; above 10 µM in assay [5]; above 10 µM in assay [6]. Further, the AC50 in assay [7] is above 10 µM; in [11], above 10 µM; in assay [8], above 30 µM; in assay [9] it was above 10 µM; in assay [10], above 10 µM.
For `COc1ccc([C@@H]2CC(=O)c3c(O)cc(O)cc3O2)cc1O` [HESPERETIN], the AC50 in assay [1] was above 10 µM; in [2], above 10 µM; in assay [3], above 30 µM; in assay [4] it was above 10 µM; in [5], above 10 µM; in assay [6], above 30 µM. Also, the AC50 in [7] was above 10 µM; in assay [11] it was above 10 µM; in [8], 30 µM; in assay [9] it was above 10 µM; in assay [10], above 10 µM.
For the compound `C=C1c2cccc(O)c2C(=O)C2=C(O)[C@]3(O)C(=O)C(C(N)=O)=C(O)[C@@H](N(C)C)[C@@H]3[C@@H](O)[C@H]12` [METHACYCLINE], the AC50 in assay [1] was above 30 µM; in assay [2], above 10 µM; in [3] it was above 30 µM; in assay [4], above 10 µM; in assay [5] it was 41.5 µM; in [6], above 10 µM. Besides, the AC50 is above 10 µM in [7]; above 10 µM in assay [11]; above 30 µM in assay [8]; above 10 µM in assay [9]; above 10 µM in [10].
As for `CN(Cc1cnc2nc(N)nc(N)c2n1)c1ccc(C(=O)N[C@@H](CCC(=O)O)C(=O)O)cc1` [METHOTREXATE], the AC50 in assay [2] was above 10 µM; in assay [3] it was above 30 µM; in assay [4], above 10 µM; in assay [5], above 30 µM; in assay [6] it was above 10 µM; in assay [7] it was above 10 µM. Further, the AC50 in assay [11] is above 10 µM; in assay [8] it was above 30 µM; in assay [9] it was above 10 µM; in assay [10], above 10 µM.
With `Cc1ccccc1N1C(=O)c2cc(S(N)(=O)=O)c(Cl)cc2NC1C` (centres undefined) [METOLAZONE], the AC50 in assay [1] was above 10 µM; in assay [2] it was above 10 µM; in assay [3], above 30 µM; in assay [4], above 10 µM; in assay [5], above 10 µM; in assay [6], above 10 µM. Further, the AC50 in assay [7] was above 10 µM; in assay [11] it was above 10 µM; in [8], above 30 µM; in assay [9] it was above 10 µM; in [10], above 10 µM.
As for `O=C(O)c1cccnc1Nc1cccc(C(F)(F)F)c1` [NIFLUMIC ACID], the AC50 in [1] is above 10 µM; in assay [2], above 10 µM; in assay [3], above 30 µM; in assay [4] it was above 10 µM; in assay [5], above 10 µM; in [6] it was above 10 µM. Besides, the AC50 in [7] was above 10 µM; in assay [11], above 10 µM; in assay [8] it was above 30 µM; in assay [9], above 10 µM; in [10], above 10 µM.
For `CN[C@@H](C)[C@@H](O)c1ccccc1` [PSEUDOEPHEDRINE], the AC50 in assay [2] is above 10 µM; in assay [3], above 30 µM; in assay [4] it was above 10 µM; in assay [5], above 30 µM; in assay [6], above 10 µM; in [7] it was above 10 µM. Moreover, the AC50 in [11] is above 10 µM; in assay [8], above 30 µM; in assay [9] it was above 10 µM; in assay [10] it was above 10 µM.
